The target of data set [1] is T1, heparin binding site of human α-thrombin (Homo sapiens, UniProt P00734).
T1 construct: A stock human α-thrombin solution; purchased Enzyme Research Labs
The experiment in a line: Microplate thermal shift assay, ligands binding to the heparin binding site, turbidity as signal. The text has this: Assays for ligands that bind to the heparin binding site of human α-thrombin are more difficult to perform than assays for ligands that bind to the active site of human α-thrombin. At the heparin binding site, no substrate is hydrolyzed, so no spectrophotometric signal can be amplified for instrumental detection. Heparin activity is usually estimated in biological clotting time assays. […] Thus, heparin binding to human α-thrombin represents the kind of challenge encountered with the vast majority of non-enzyme receptor/ligand binding events, which are commonly observed for hormone/receptor interactions, repressor/DNA interactions, neurotransmitter/receptor interactions, etc. Several heparin-like sulfated oligosaccharides and sulfated naphthalene compounds were assayed by the microplate thermal shift assay. Using the thermal shift assay, it was possible to use a single compound per well to quickly rank the compounds in order of increasing binding affinity, with Kd's ranging over three orders of magnitude (see Table 4). Like the experiment in Example 1, the thermal shift assay results agreed closely with the results obtained through an alternative method, which required a series of laborious (15 to 20 single determinations) fluorescence quench assays over a wide range of concentrations of low MW heparin (Olson, S. T. et al., J. Biol. Chem. 266:6342-6352 (1991)).

The target of data set [2] is T2, acidic fibroblast growth factor (aFGF) (Homo sapiens, UniProt P05230).
T2 construct: host or cells: E. coli
T2 sequence (P05230 whole entry, species assumed): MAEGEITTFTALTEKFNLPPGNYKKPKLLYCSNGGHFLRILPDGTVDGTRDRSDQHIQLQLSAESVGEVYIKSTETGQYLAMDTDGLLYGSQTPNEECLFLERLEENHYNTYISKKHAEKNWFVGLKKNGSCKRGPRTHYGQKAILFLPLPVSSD
The data set can be described thus: Microplate thermal shift assay for ligands binding to aFGF, turbidity as signal. The text has this: The second therapeutic receptor tested in the microplate thermal shift assay was acidic fibroblast growth factor (aFGF), a growth factor that plays a key role in angiogenesis (Folkman, J. et al., J. Biol. Chem. 267:10931-10934 (1992)). A synthetic gene for this protein was purchased from R&D Systems (Minneapolis, Minn.), and was cloned and expressed in E. coli using methods similar to those described for basic fibroblast growth factor (bFGF) (Thompson, L. D. et al., Biochemistry 33:3831-3840 (1994); Pantoliano, M. W. et al., Biochemistry 33:10229-10248 (1994); Springer, B. A. et al., J. Biol. Chem. 269:26879-26884 (1994)). Recombinant aFGF was then purified by heparin-sepharose affinity chromatography as described (Thompson, L. D. et al., Biochemistry 33:3831-3840 (1994)). aFGF is also known to bind heparin/heparan, which is a cofactor for mitogenic activity. […] A microplate thermal assay of these compounds was set up in a way similar to that described above for human α-thrombin. […] The affinity constants covered a fairly broad range of binding affinities, with pentosan PSO4 showing the highest affinity.

The target in data set [3] is T3, heparin binding site of basic fibroblast growth factor (bFGF) (Homo sapiens, UniProt P09038).
T3 construct: host or cells: E. coli
T3 sequence (P09038 134-288, species assumed): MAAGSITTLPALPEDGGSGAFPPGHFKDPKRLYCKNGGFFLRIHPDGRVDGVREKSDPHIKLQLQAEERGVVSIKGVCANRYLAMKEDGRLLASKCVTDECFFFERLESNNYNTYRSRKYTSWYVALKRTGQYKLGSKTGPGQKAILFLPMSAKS
The experiment in a line: Microplate thermal shift assay for ligands binding to bFGF. Conditions: read-out: binding affinity. The text has this: The microplate thermal shift assay was used to assess ligands for binding to the heparin binding site of basic fibroblast growth factor (bFGF). The gene for bFGF was purchased from R&D Systems and was cloned and expressed in E. coli as previously described (Thompson, L. D. et al., Biochemistry 33:3831-3840 (1994); Pantoliano, M. W. et al., Biochemistry 33:10229-10248 (1994); Springer, B. A. et al., J. Biol. Chem. 269:26879-26884 (1994)).

Data set [4] relates to D(II) domain of human FGF receptor 1. The experiment in a line: Microplate thermal shift assay for ligands binding to D(II) FGFR1, fluorescence emission as signal. The text has this:
The microplate thermal-shift assay was employed to test the binding of heparin 5000 and pentosan PSO4 to the known heparin binding site in the D(II) domain of fibroblast growth factor receptor 1 (FGFR1). D(II) FGFR1 is a 124 residue domain which is responsible for most of the free energy of binding for bFGF. D(II) FGFR1 was cloned and expressed in E. coli. Recombinant D(II) FGFR1 was renatured from inclusion bodies essentially as described (Wetmore, D. R. et al., Proc. Soc. Mtg., San Diego, Calif. (1994)), except that a hexa-histidine tag was included at the N-terminus to facilitate recovery by affinity chromatography on a Ni^2+ chelate column (Janknecht, R. et al., Natl. Acad. Sci. USA 88:8972-8976 (1991)). D(II) FGFR1 was further purified on a heparin-sepharose column (Kan, M. et al., Science 259:1918-1921 (1993); Pantoliano, M. W. et al., Biochemistry 33:10229-10248 (1994)). Purity was >95%, as judged by SDS-PAGE. The D(II) FGFR1 protein was concentrated to 12 mg/mL (˜1 mM) and stored at 4° C.
The D(II) FGFR1 protein was dissolved in an ANS solution to a concentration of […] (70 μM). The quantum yield for ANS bound to the denatured form of D(II) FGFR1 was lower than the quantum yield for ANS bound to human α-thrombin. Because ANS fluorescence is very environment dependent (see Lakowicz, I. R. Principles of Fluorescence Spectroscopy, Plenum Press, New York (1983)), the quantum yield observed for the denaturation of different proteins will vary. For D(II) FGFR1, the signal for the turbidity version of the assay, however, was nearly undetectable. Despite the decreased sensitivity for D(II) FGFR1, ANS rescued this system for the microplate assay. A similar-result was obtained for Factor Xa, except that the fluorescence quantum yield for ANS bound to denatured Factor Xa was almost as good as it was for human α-thrombin.

Another data set has as its target bFGF (Homo sapiens, UniProt P09038). Conditions: binding to bFGF by isothermal titrating calorimetry; read-out: Ki (298° K) Literature; cited from earlier work.
The target in the next data set is D(II)-D(III) FGFR1. The conditions noted are these: titrating calorimetry, read-out: Kd (298° K) Literature; cited from earlier work.
Chain of D(II)-D(III) FGFR1 (P11362 150-254 limits assumed): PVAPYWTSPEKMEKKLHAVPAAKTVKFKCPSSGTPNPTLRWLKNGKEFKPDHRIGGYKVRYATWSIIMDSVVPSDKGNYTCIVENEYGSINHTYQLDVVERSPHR
The conditions of data set [5]: literature; cited from earlier work.
The conditions of data set [6]: many effects described as coagulation anomalies; cited from earlier work.
Setting [7] is: equation (1), estimated ΔHu 60.0 kcal/mole, ΔCpu 0.95 kcal/mole-°K, read-out: Kd at Tm.

Results on one substance are retold here after US20020114734A1, “Microplate thermal shift assay apparatus for ligand development and multi-variable protein chemistry optimization” (priority 1996, published 2002).

Read-outs that look alike come from different tables or passages of the source.

For orientation: Ki means a measure of affinity in units of concentration, obtained from inhibition or displacement.

Chain of D(II) domain of human FGF receptor 1 (P11362 158-246 limits assumed): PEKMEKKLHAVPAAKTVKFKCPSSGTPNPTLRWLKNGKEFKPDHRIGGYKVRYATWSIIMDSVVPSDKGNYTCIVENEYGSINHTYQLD
Chain of bFGF (P09038 134-288, species assumed): as the sequence (P09038 134-288, species assumed) above

For the substance pentosan polysulfate [Pentosan PSO4], the Kd in data set [1] (calculated with equation (1), read-out: Kd at Tm) is 2420 nM; in data set [1] (estimated with equation (3), ΔHL estimated −10.0 kcal/mole, read-out: Kd at 298° K Observed), 427 nM; in data set [2] (setting [7]), 208 nM; in data set [2] (equation (3), ΔHL estimated −10.0 kcal/mole, read-out: Kd at 298° K Observed), 31 nM; in data set [3] it was 55 nM; in data set [4] (setting [7]), 19100 nM. Further, the Kd was 4900 nM in data set [4] (equation (3), ΔHL −12.1 (pentosan PSO4) and −7.48 kcal/mole (heparin 5000), read-out: Kd at 298° K Observed); 10900 nM at D(II)-D(III) FGFR1. Moreover, in data set [1] (thermal shift assay, at Tm), the “affinity at Tm, fold higher than the affinity of heparin 5000” value turned out to be 7 fold. Also, the Tm in data set [1] (thrombin/ligand complex, 11 μM thrombin, ligand 40-102 μM, turbidity) was determined as 332.15 ° K; in data set [2] (aFGF/ligand, aFGF 0.25 mg/mL, ligand 47-200 μM, turbidity) it was 336.15 ° K; in data set [4] (D(II) FGFR1 70 μM, 136 μM ANS, ligand 150-156 μM) it was 319.4 ° K. The Ki at bFGF was 88 nM. Moreover, the anticoagulant properties entry in data set [5] is “anticoagulant properties”. Further, the “outcome of clinical trials” value in data set [6] is recorded as “discounted due to toxic effects”.
